Legend:
Format in all cases: in vivo, Balb/c mice
IFN-γ = IFN-γ level in oxazolone-induced colitis mice (cytometric bead array); conditions: Day 9, PO BID 5 days, compound A30 1, 5 or 25 mg/kg, tofacitinib 10 mg/kg; for IFN-γ level (intestinal mucosa): FIG. 8; for IFN-γ level (serum): FIG. 10
Experimental: (§1) Compound A30 was evaluated in an oxazolone-induced colitis murine model, along with tofacitinib. Boirivant et al., J. Exp. Med. 1998, 188, 1929-39. Balb/c mice were randomly divided into 6 groups according to Table 1:4 treatment groups (Treatment Groups), 1 vehicle group (Vehicle Group), and 1 sham group (Sham Group). The mice in Treatment and Vehicle Groups were sensitized with 200 μL of 2% oxazolone in acetone and olive oil (1:4), followed by injection of 100 μL of 1.5% oxazolone into the rectum of each mouse on Day 5 after sensitization. The mice in Sham Group were sensitized with 200 μL of a mixture of acetone and olive oil (1:4) without oxazolone, followed by injection of 100 μL of 50% ethanol/water into the rectum of each mouse on Day 5 after sensitization. Before the injection into the rectum, each mouse was anesthetized intraperitoneally with tribromoethanol (0.3 mL, 1.25%). From Days 4 to 8 after sensitization, the mice in Sham and Vehicle Groups were each given 0.5% CMC-Na by gavage, and the mice in Treatment Groups were each given by gavage tofacitinib or compound A30 in 0.5% CMC-Na, respectively, according to the dosing schedule shown in Table 1.
(§2) On Day 9 after sensitization, each mouse was euthanized and blood was collected from the heart. A serum was prepared and frozen for the determination of inflammatory factors.
(§3) The colon of each mouse was collected and photographed, and the colon length was measured and weighed after the removal of the content of the colon. A part of each colon collected was fixed using the Swiss roll technique in neutral paraformaldehyde for pathological scoring (Table 3) as described in Bialkowska et al., J. Vis. Exp. 2016, 113, e54161. The rest of the colon mucosa of each mouse was scraped and frozen for the determination of inflammatory factors.
(§4) The IFN-γ and TNFα levels were analyzed using a BD™ cytometric bead array (CBA) kit.

TNF-α = TNF-α level in oxazolone-induced colitis mice (cytometric bead array); conditions: Day 9, PO BID 5 days, compound A30 1, 5 or 25 mg/kg, tofacitinib 10 mg/kg; for TNF-α level (intestinal mucosa): FIG. 7; for TNF-α level (serum): FIG. 9
Experimental: as §1, §2, §3, §4

[1] = test system: oxazolone-induced colitis mice; test: Oxazolone-induced acute colitis in mice for ulcerative colitis (bodyweight, DAI, colon weight, length and density); conditions: PO BID 5 days, compound A30 1, 5 or 25 mg/kg, tofacitinib 10 mg/kg; for colon weight / colon length / colon density: Day 9 after sensitization; for colon weight: FIG. 3; for colon length: FIG. 4; for colon density: FIG. 5; for bodyweight change: FIG. 1; for DAI score: FIG. 2
Experimental: as §1
The bodyweight of each mouse was measured daily. From Day 4 after sensitization, the fecal property and occult blood as determined with a fecal occult blood test (FOBT) of each mouse were measured daily to calculate a disease activity index (DAI) according to Table 2.
as §2, §3
Due to the inflammation, it is expected that the colon of an oxazolone-induced colitis mouse has an […], and increased density.

Structure (SMILES)	IFN-γ level (intestinal mucosa) (IFN-γ)	IFN-γ level (serum) (IFN-γ)	TNF-α level (intestinal mucosa) (TNF-α)	TNF-α level (serum) (TNF-α)	colon weight [1]	colon length [1]	colon density [1]	bodyweight change [1]	DAI score [1]
C[P@](=O)(CCc1cc(Cl)c(C(=O)N[C@@H](Cc2cccc(S(C)(=O)=O)c2)C(=O)O)c(Cl)c1)c1cccc(O)c1 [compound A30, (S)-2-(2,6-dichloro-4-(2-((S)-(3-hydroxyphenyl)(methyl)phosphoryl)ethyl)benz-amido)-3-(3-(methylsulfonyl)phenyl)propanoic acid]	lowered	lowered	lowered	lowered	able to reverse the disease effects	able to reverse the disease effects	able to reverse the disease effects	slowed the bodyweight loss	improved the DAI score
C[C@@H]1CCN(C(=O)CC#N)C[C@@H]1N(C)c1ncnc2[nH]ccc12 [tofacitinib]	lowered	lowered	lowered	lowered	able to reverse the disease effects	able to reverse the disease effects	able to reverse the disease effects	slowed the bodyweight loss	improved the DAI score
